Data as given in patent publication US20240360114A1 (SIRONAX LTD., priority 2021, published 2024).

test system: HT-1080 cells; experiment: HT-1080 cell viability assay (ferroptosis induced by RSL3, Cell Titer-Glo); assay type: cell-based; settings: Homo sapiens, HT-1080, 20 h, ferroptosis inducer RSL3, 20 hours, ferroptosis inhibitory activity, Table 2
Protocol: Example 2. Determination of EC50 Values in HT-1080 Cell Viability Assay
HT-1080 (ATCC, CCL-121) cells (6000 in 100 μl) were seeded in 96-well plates (Corning) and cultured in a 37° C. incubator with a humidified atmosphere of 5% CO2 for overnight. Cells were then treated with ferroptosis inducer RSL3 (TargetMol) and a 3-fold, 10-point serial dilution series of compounds with 1.1 μM as the highest concentration, for 20 hours. Cell viability was assessed using the Cell Titer-Glo Kit (Promega). The luminescence intensity was measured with a microplate reader (Envision, PerkinElmer), and cell viability was calculated by normalizing the data to untreated controls. The EC50 values of the compounds (e.g., Compounds 1-573 and 574-661) were calculated in GraphPad Prism (GraphPad Software, Inc., San Diego, CA, USA). The curves were fitted using a non-linear regression model with a sigmoidal dose response.

Compound	EC50 [nM]
CC1(C)CCC(c2ccc(NC3CCC(NC(=O)[C@H]4CNC(=O)N4)C3)cc2)CC1 (mixture of isomers) [Compound 155]	0.1 to 100
Cc1nc(N2CCC(C(F)(F)F)CC2)ncc1NC1CCC(N)CC1 (single isomer, unassigned) [Compound 65A, N1-(4-methyl-2-(4-(trifluoromethyl)piperidin-1-yl)pyrimidin-5-yl)cyclohexane-1,4-diamine]	0.1 to 100
CN(C)C1CCC(NC(=O)C2CCC(Nc3ccc(C4CCC(C)(C)CC4)cc3)CC2)CC1 (single isomer, unassigned) [Compound 76A, (4-(dimethylamino)cyclohexyl)-4-((4-(4,4-dimethylcyclohexyl)phenyl)amino)cyclohexane-1-carboxamide]	0.1 to 100
NCC1CCC(Nc2ccc(C3CCCCC3)cc2)CC1 (single isomer, unassigned) [Compound 82A, N-(4-(aminomethyl)cyclohexyl)-4-cyclohexylaniline]	0.1 to 100
CC1(C)CCC(c2ccc(NC3CCC(CNC(=O)[C@@H]4CNC(=O)N4)CC3)cc2)CC1 (single isomer, unassigned) [Compound 107A]	0.1 to 100
CC(C)(C)c1ccc(NC2CCC(NC(=O)C3CNC(=O)C3)CC2)cc1 (single isomer, unassigned) [Compound 114A, N-(4-((4-(tert-butyl)phenyl)amino)cyclohexyl)-5-oxopyrrolidine-3-carboxamide]	100 to 1000
CC1(C)CCC(c2ccc(NC3CCC(N)C3)cc2)CC1 (single isomer, unassigned) [Compound 121A, N1-(4-(4,4-dimethylcyclohexyl)phenyl)cyclopentane-1,3-diamine]	0.1 to 100
CCCCOc1ccc(NC2CCC(N)CC2)cc1 (single isomer, unassigned) [Compound 142A, N1-(4-butoxyphenyl)cyclohexane-1,4-diamine]	0.1 to 100
CC(C)(C)c1ccc(NC2CCC(CNC(=O)[C@H]3CNC(=O)N3)CC2)cc1 (single isomer, unassigned) [Compound 143A]	100 to 1000
CC1(C)CCC(c2ccc(NC3CCC(C(N)=O)C3)cc2)CC1 (single isomer, unassigned) [Compound 146A, 3-((4-(4,4-dimethylcyclohexyl)phenyl)amino)cyclopentane-1-carboxamide]	0.1 to 100
CC(C)(C)c1ccc(NC2CCCC(N)C2)cc1 (single isomer, unassigned) [Compound 149A, N1-(4-(tert-butyl)phenyl)cyclohexane-1,3-diamine]	100 to 1000
CC(C)(C)c1cccc(NC2CCC(N)CC2)c1 (single isomer, unassigned) [Compound 153A, N1-(3-(tert-butyl)phenyl)cyclohexane-1,4-diamine]	100 to 1000
CN(C)C1CCC(Nc2ccc(C(C)(C)C)cc2)CC1 (single isomer, unassigned) [Compound 193A, N1-(4-(tert-butyl)phenyl)-N4,N4-dimethylcyclohexane-1,4-diamine]	100 to 1000

The remaining lines, values ahead:

EC50 [nM]	Compound
1000 to 10000	NC1CCC(Nc2ncc(N3CCC(C(F)(F)F)CC3)cn2)CC1 (single isomer, unassigned) [Compound 64A]
100 to 1000	CCC(CC)c1ccc(NC2CCC(CN)CC2)cc1 (single isomer, unassigned) [Compound 81A, N-(4-(aminomethyl)cyclohexyl)-4-(pentan-3-yl)aniline]
0.1 to 100	CN(C)C1CCC(Nc2ccc(C3CCC(C)(C)CC3)cc2)CC1 (single isomer, unassigned) [Compound 91A, N1-(4-(4,4-dimethylcyclohexyl)phenyl)-N4,N4-dimethylcyclohexane-1,4-diamine]
0.1 to 100	CN(C)CC1CCC(Nc2ccc(C3CCC(C)(C)CC3)cc2)CC1 (single isomer, unassigned) [Compound 97A, N-(4-((dimethylamino)methyl)cyclohexyl)-4-(4,4-dimethylcyclohexyl)aniline]
0.1 to 100	CC1(C)CCC(c2ccc(NC3CCC(CNC(=O)C4CNC(=O)C4)CC3)cc2)CC1 (single isomer, unassigned) [Compound 106A]
100 to 1000	CC(C)(C)c1ccc(NC2CCC(NC(=O)[C@H]3CNC(=O)N3)CC2)cc1 (single isomer, unassigned) [Compound 115A]
0.1 to 100	O=C1NC[C@H](C(=O)NCC2CCC(Nc3ccc(C4CCCCC4)cc3)CC2)N1 (single isomer, unassigned) [Compound 117A]
0.1 to 100	CC1(C)CCC(c2ccc(NC3CCC(N)CC3)cc2)CC1 (single isomer, unassigned) [Compound 120A, N1-(4-(4,4-dimethylcyclohexyl)phenyl)cyclohexane-1,4-diamine]
100 to 1000	CCCc1ccc(NC2CCC(N)CC2)cc1 (single isomer, unassigned) [Compound 135A, N1-(4-propylphenyl)cyclohexane-1,4-diamine]
0.1 to 100	NC1CCC(Nc2ccc(C3CCCC3)cc2)CC1 (single isomer, unassigned) [Compound 139A, N1-(4-cyclopentylphenyl)cyclohexane-1,4-diamine]
100 to 1000	CC(C)(C)c1ccc(NC2CCC(CNC(=O)C3CNC(=O)C3)CC2)cc1 (single isomer, unassigned) [Compound 144A, N-((4-((4-(tert-butyl)phenyl)amino)cyclohexyl)methyl)-5-oxopyrrolidine-3-carboxamide]
0.1 to 100	CC1(C)CCC(c2ccc(NC3CCC(CNC(=O)[C@H]4CC(=O)NC(=O)N4)CC3)cc2)CC1 (single isomer, unassigned) [Compound 148A]
0.1 to 100	CC1(C)CCC(c2ccc(NC3CCC(NC(=O)[C@H]4CNC(=O)N4)CC3)cc2)CC1 (single isomer, unassigned) [Compound 156A]
0.1 to 100	CC(=O)NC1CCC(Nc2ccc(C3CCC(C)(C)CC3)cc2)CC1 (single isomer, unassigned) [Compound 157A, N-(4-((4-(4,4-dimethylcyclohexyl)phenyl)amino)cyclohexyl)acetamide]
100 to 1000	Cc1cc(NC2CCC(N)CC2)cc(C)c1C (single isomer, unassigned) [Compound 182A, N1-(3,4,5-trimethylphenyl)cyclohexane-1,4-diamine]
1000 to 10000	CC(C)(C)c1ccc(NC2CCC(N)CC2)c(Cl)c1 (single isomer, unassigned) [Compound 183A, N1-(4-(tert-butyl)-2-chlorophenyl)cyclohexane-1,4-diamine]
1000 to 10000	NC1CCC(Nc2cccc3c2CCC3)CC1 (single isomer, unassigned) [Compound 191A, N1-(2,3-dihydro-1H-inden-4-yl)cyclohexane-1,4-diamine]

same assay, conditions: ferroptosis inducer RSL3, 20 hours, ferroptosis inhibitory activity, Table 2

EC50 [nM]	Compound
1000 to 10000	NCC1CCC(Nc2ccccc2)CC1 (single isomer, unassigned) [Compound 92A, N-(4-(aminomethyl)cyclohexyl)aniline]
100 to 1000	NCC1CCC(Nc2ccccc2)CC1 (single isomer, unassigned) [Compound 92B, N-(4-(aminomethyl)cyclohexyl)aniline]
0.1 to 100	CC1(C)CCC(c2ccc(NC3CCC(C(N)=O)CC3)cc2)CC1 (single isomer, unassigned) [Compound 159A, 4-((4-(4,4-dimethylcyclohexyl)phenyl)amino)cyclohexane-1-carboxamide]
100 to 1000	CC1(C)CCC(c2ccc(NC3CCC(C(N)=O)CC3)cc2)CC1 (single isomer, unassigned) [Compound 159B, 4-((4-(4,4-dimethylcyclohexyl)phenyl)amino)cyclohexane-1-carboxamide]
